{"source": "patent US20230052667A1", "about": "“AGENT FOR MAINTAINING OR ENHANCING COLLAGEN PRODUCTION ABILITY” (Shiseido Company, Ltd., priority 2020, published 2023)", "system": "human skin-derived fibroblasts", "assay": "Collagen quantification in fibroblasts after artificial sunlight irradiation through the wavelength conversion substance", "format": "cell-based", "conditions": "artificial sunlight 80 minutes passed through substance (10% phosphor film or 1% aqueous solution, no cell contact); collagen measured 3 days after irradiation; UV-only control 14 μg collagen/well", "procedure": "Preparation method: A film containing 10% Zinc Oxide phosphor, a film containing 10% magnesium titanate phosphor were used, and C-phycocyanin was dissolved in ultrapure water at a concentration of 1% and used as a solution. • Cells: human skin-derived fibroblasts • Collagen assay kit: Cosmo Bio Co., COL-001 • DNA-quantitation kit: Cosmo Bio Co., AK06 • Artificial Sunlight Irradiation System: Celick Corporation: XC-500BF\nHuman skin-derived fibroblasts cultured in 75 cm^2 flasks were treated with trypsin, and after harvesting the cells, the cells were seeded at a density of 2×10^5 cells/dish using medium on five 6-well plates according to the plate arrangement below. […]\nAfter 3 days from illumination, culture supernatants were removed from wells for collagen quantitation in each treatment group and washed with PBS. Collagen in human fibroblast layers was extracted and measured according to the protocol of the collagen quantitation kit (https://search.cosmobio.co.jp/cosmo_searchp/search_gate2/docs/CSR_/COL001.20190327.pdf). In addition, the amount of DNA in samples after collagen extraction was determined for correction of collagen quantitative results according to the protocol of the Quantitative Kit of DNA (https://search.cosmobio.co.jp/cosmo)_search_p/search_gate2/docs/PMC_/AK06.20140507.pdf)."}
{"substance": "C-phycocyanin", "values": [{"measurement": "collagen produced by UV-irradiated fibroblasts", "result": 25, "unit": "μg collagen/well"}]}
